The results in this text go back to patent US20230365592A1 (Agios Pharmaceuticals, Inc., priority 2022, published 2023).

For this assay, the target named is T1, human PAH with the R408W mutation (Homo sapiens, UniProt P00439, R408W).
T1 construct: expressed in transfected cells
T1 sequence (P00439 1-452 R408W): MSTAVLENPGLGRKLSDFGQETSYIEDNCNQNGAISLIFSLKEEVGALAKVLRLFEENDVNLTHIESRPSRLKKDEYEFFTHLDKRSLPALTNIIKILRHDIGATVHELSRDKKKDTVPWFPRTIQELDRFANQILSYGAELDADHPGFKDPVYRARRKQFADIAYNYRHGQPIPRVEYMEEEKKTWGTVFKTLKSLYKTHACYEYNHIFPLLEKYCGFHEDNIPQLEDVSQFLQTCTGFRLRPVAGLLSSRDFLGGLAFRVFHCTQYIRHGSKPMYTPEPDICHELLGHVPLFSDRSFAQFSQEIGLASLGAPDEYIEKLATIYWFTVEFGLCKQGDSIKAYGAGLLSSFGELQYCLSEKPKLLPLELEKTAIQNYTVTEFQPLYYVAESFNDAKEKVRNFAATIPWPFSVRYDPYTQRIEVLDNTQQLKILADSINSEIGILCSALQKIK
The experiment in a line: Cell Based Phenylalanine Flux Assay.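 Note: after compound treatment, cells received sepiapterin plus isotope-labelled Phenylalanine for 4 hours, then labelled Tyrosine in the medium was quantified, 10-point 2-fold dilution series run in duplicate.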 To be noted: A375 cells expressing human R408W PAH; 24 hrs compound incubation; 13C-Tyrosine by LC-MS; average where tested multiple times; read-out: AC50.

Turning to `Cc1c(-c2nnc(C(=O)N3CCc4[nH]cnc4[C@H]3c3cc4c(C(F)F)cccn4n3)o2)cnn1C` [Example 1348, (S)-(4-(4-(difluoromethyl)pyrazolo[1,5-a]pyridin-2-yl)-6,7-dihydro-1H-imidazo[4,5-c]pyridin-5(4H)-yl)(5-(1,5-dimethyl-1H-pyrazol-4-yl)-1,3,4-oxadiazol-2-yl)methanone], the AC50 is below 500 nM.

In the case of `CC(C)(F)c1nnc(C(=O)N2CCc3[nH]cnc3[C@@H]2c2cc3c(C(F)F)cccn3n2)o1` [Example 1351, (R)-(4-(4-(difluoromethyl)pyrazolo[1,5-a]pyridin-2-yl)-6,7-dihydro-1H-imidazo[4,5-c]pyridin-5(4H)-yl)(5-(2-fluoropropan-2-yl)-1,3,4-oxadiazol-2-yl)methanone], the AC50 is above 5000 nM.

As for `Cn1ccc(-c2nnc(C(=O)N3CCc4[nH]cnc4[C@H]3c3cc4c(C(F)F)cccn4n3)o2)n1` [Example 1352, (S)-(4-(4-(difluoromethyl)pyrazolo[1,5-a]pyridin-2-yl)-6,7-dihydro-1H-imidazo[4,5-c]pyridin-5(4H)-yl)(5-(1-methyl-1H-pyrazol-3-yl)-1,3,4-oxadiazol-2-yl)methanone], the AC50 is below 500 nM.

Turning to `CC1(c2nnc(C(=O)N3CCc4[nH]cnc4[C@H]3c3cc4cccc(C(F)(F)F)n4n3)o2)CC1` [Example 1354, (S)-(5-(1-methylcyclopropyl)-1,3,4-oxadiazol-2-yl)(4-(7-(trifluoromethyl)pyrazolo[1,5-a]pyridin-2-yl)-6,7-dihydro-1H-imidazo[4,5-c]pyridin-5(4H)-yl)methanone], the AC50 lay within 500 to 1000 nM.

Regarding `CC1(c2nnc(C(=O)N3CCc4[nH]cnc4[C@@H]3c3cc4cccc(C(F)(F)F)n4n3)o2)CC1` [Example 1355, (R)-(5-(1-methylcyclopropyl)-1,3,4-oxadiazol-2-yl)(4-(7-(trifluoromethyl)pyrazolo[1,5-a]pyridin-2-yl)-6,7-dihydro-1H-imidazo[4,5-c]pyridin-5(4H)-yl)methanone], the AC50 lay in the range of 1000 to 5000 nM.

Turning to `Cc1ncccc1-c1nnc(C(=O)N2CCc3[nH]cnc3[C@H]2c2cc3cccc(C)n3n2)o1` [Example 1358, (S)-(4-(7-methylpyrazolo[1,5-a]pyridin-2-yl)-6,7-dihydro-1H-imidazo[4,5-c]pyridin-5(4H)-yl)(5-(2-methylpyridin-3-yl)-1,3,4-oxadiazol-2-yl)methanone], the AC50 was below 500 nM.

Regarding `Cc1ncccc1-c1nnc(C(=O)N2CCc3[nH]cnc3[C@@H]2c2cc3cccc(C)n3n2)o1` [Example 1359, (R)-(4-(7-methylpyrazolo[1,5-a]pyridin-2-yl)-6,7-dihydro-1H-imidazo[4,5-c]pyridin-5(4H)-yl)(5-(2-methylpyridin-3-yl)-1,3,4-oxadiazol-2-yl)methanone], the AC50 was 1000 to 5000 nM.

Regarding `O=C(c1nnc(-c2cnccn2)o1)N1CCc2[nH]cnc2[C@@H]1c1cc2cccc(C(F)(F)F)n2n1` [Example 1360, (R)-(5-(pyrazin-2-yl)-1,3,4-oxadiazol-2-yl)(4-(7-(trifluoromethyl)pyrazolo[1,5-a]pyridin-2-yl)-6,7-dihydro-1H-imidazo[4,5-c]pyridin-5(4H)-yl)methanone], the AC50 is above 5000 nM.

Turning to `O=C(c1nnc(-c2cnccn2)o1)N1CCc2[nH]cnc2[C@@H]1c1cc2ccccn2n1` [Example 1363, (R)-(5-(pyrazin-2-yl)-1,3,4-oxadiazol-2-yl)(4-(pyrazolo[1,5-a]pyridin-2-yl)-6,7-dihydro-1H-imidazo[4,5-c]pyridin-5(4H)-yl)methanone], the AC50 is above 5000 nM.

Turning to `Cc1c(-c2nnc(C(=O)N3CCc4[nH]cnc4[C@H]3c3cc4cccc(C(F)F)n4n3)o2)cnn1C` [Example 1366, (S)-(4-(7-(difluoromethyl)pyrazolo[1,5-a]pyridin-2-yl)-6,7-dihydro-1H-imidazo[4,5-c]pyridin-5(4H)-yl)(5-(1,5-dimethyl-1H-pyrazol-4-yl)-1,3,4-oxadiazol-2-yl)methanone], the AC50 was below 500 nM.

For the molecule `Cn1nc(C(F)F)cc1C(=O)N1CCc2[nH]cnc2[C@@H]1c1cc2c(Cl)cccn2n1` [Example 1369, (R)-(4-(4-chloropyrazolo[1,5-a]pyridin-2-yl)-6,7-dihydro-1H-imidazo(4,5-c]pyridin-5(4H)-yl)(3-(difluoromethyl)-1-methyl-1H-pyrazol-5-yl)methanone], the AC50 lay within 1000 to 5000 nM.

Regarding `Cn1nc(C(F)F)cc1C(=O)N1CCc2[nH]cnc2[C@H]1c1cc2c(C(F)(F)F)cccn2n1` [Example 1370, (S)-(3-(difluoromethyl)-1-methyl-1H-pyrazol-5-yl)(4-(4-(trifluoromethyl)pyrazolo[1,5-a]pyridin-2-yl)-6,7-dihydro-1H-imidazo[4,5-c]pyridin-5(4H)-yl)methanone], the AC50 was below 500 nM.

On to `O=C(c1nnc(-c2cnn(C(F)F)c2)o1)N1CCc2[nH]cnc2[C@H]1c1cc2c(C(F)F)cccn2n1` [Example 1374, (S)-(5-(1-(difluoromethyl)-1H-pyrazol-4-yl)-1,3,4-oxadiazol-2-yl)(4-(4-(difluoromethyl)pyrazolo[1,5-a]pyridin-2-yl)-6,7-dihydro-1H-imidazo[4,5-c]pyridin-5(4H)-yl)methanone], for which the AC50 is below 500 nM.

As for `O=C(c1nnc(-c2cnn(C(F)F)c2)o1)N1CCc2[nH]cnc2[C@@H]1c1cc2c(C(F)F)cccn2n1` [Example 1375, (R)-(5-(1-(difluoromethyl)-1H-pyrazol-4-yl)-1,3,4-oxadiazol-2-yl)(4-(4-(difluoromethyl)pyrazolo[1,5-a]pyridin-2-yl)-6,7-dihydro-1H-imidazo[4,5-c]pyridin-5(4H)-yl)methanone], the AC50 is above 5000 nM.

As to `O=C(c1nnc(-c2ccn(C(F)F)n2)o1)N1CCc2[nH]cnc2[C@H]1c1cc2c(C(F)F)cccn2n1` [Example 1377, (S)-(5-(1-(difluoromethyl)-1H-pyrazol-3-yl)-1,3,4-oxadiazol-2-yl)(4-(4-(difluoromethyl)pyrazolo[1,5-a]pyridin-2-yl)-6,7-dihydro-1H-imidazo[4,5-c]pyridin-5(4H)-yl)methanone], the AC50 was below 500 nM.

For `CC1(c2nnc(C(=O)N3CCc4[nH]cnc4[C@H]3c3cc4c(F)cccn4n3)o2)CC1` [Example 1378, (S)-(4-(4-fluoropyrazolo[1,5-a]pyridin-2-yl)-6,7-dihydro-1H-imidazo[4,5-c]pyridin-5(4H)-yl)(5-(1-methylcyclopropyl)-1,3,4-oxadiazol-2-yl)methanone], the AC50 is below 500 nM.

Regarding `CC1(c2nnc(C(=O)N3CCc4[nH]cnc4[C@@H]3c3cc4c(F)cccn4n3)o2)CC1` [Example 1379, (R)-(4-(4-fluoropyrazolo[1,5-a]pyridin-2-yl)-6,7-dihydro-1H-imidazo[4,5-c]pyridin-5(4H)-yl)(5-(1-methylcyclopropyl)-1,3,4-oxadiazol-2-yl)methanone], the AC50 is above 5000 nM.

For the molecule `O=C(c1nnc(-c2ncccn2)o1)N1CCc2[nH]cnc2[C@@H]1c1cc2c(C(F)(F)F)cccn2n1` [Example 1380, (R)-(5-(pyrimidin-2-yl)-1,3,4-oxadiazol-2-yl)(4-(4-(trifluoromethyl)pyrazolo[1,5-a]pyridin-2-yl)-6,7-dihydro-1H-imidazo[4,5-c]pyridin-5(4H)-yl)methanone], the AC50 lay in the range of 1000 to 5000 nM.

With `O=C(c1nnc(-c2ncccn2)o1)N1CCc2[nH]cnc2[C@H]1c1cc2c(C(F)(F)F)cccn2n1` [Example 1381, (S)-(5-(pyrimidin-2-yl)-1,3,4-oxadiazol-2-yl)(4-(4-(trifluoromethyl)pyrazolo[1,5-a]pyridin-2-yl)-6,7-dihydro-1H-imidazo[4,5-c]pyridin-5(4H)-yl)methanone], the half-maximal activity concentration (AC50) lay within 500 to 1000 nM.

Consider `Cc1cccc(-c2nnc(C(=O)N3CCc4[nH]cnc4[C@@H]3c3cc4ccccn4n3)o2)n1` [Example 1383, (R)-(5-(6-methylpyridin-2-yl)-1,3,4-oxadiazol-2-yl)(4-(pyrazolo[1,5-a]pyridin-2-yl)-6,7-dihydro-1H-imidazo[4,5-c]pyridin-5(4H)-yl)methanone], for which the AC50 was above 5000 nM.

With `Cn1nc(C(F)F)cc1C(=O)N1CCc2[nH]cnc2[C@H]1c1cc2cccc(Cl)n2n1` [Example 1384, (S)-(4-(7-chloropyrazolo[1,5-a]pyridin-2-yl)-6,7-dihydro-1H-imidazo[4,5-c]pyridin-5(4H)-yl)(3-(difluoromethyl)-1-methyl-1H-pyrazol-5-yl)methanone], the AC50 was below 500 nM.

For `Cc1cccc2cc([C@@H]3c4nc[nH]c4CCN3C(=O)c3cc(C(F)F)nn3C)nn12` [Example 1388, (S)-(3-(difluoromethyl)-1-methyl-1H-pyrazol-5-yl)(4-(7-methylpyrazolo[1,5-a]pyridin-2-yl)-6,7-dihydro-1H-imidazo[4,5-c]pyridin-5(4H)-yl)methanone], the AC50 was below 500 nM.

On to `Cc1cccc2cc([C@H]3c4nc[nH]c4CCN3C(=O)c3cc(C(F)F)nn3C)nn12` [Example 1389, (R)-(3-(difluoromethyl)-1-methyl-1H-pyrazol-5-yl)(4-(7-methylpyrazolo[1,5-a]pyridin-2-yl)-6,7-dihydro-1H-imidazo[4,5-c]pyridin-5(4H)-yl)methanone], for which the concentration at half-maximal activity (AC50) was above 5000 nM.

As for `O=C(c1nnc(C2CC2)o1)N1CCc2[nH]cnc2[C@H]1c1cc2cccc(C(F)F)n2n1` [Example 1390, (S)-(5-cyclopropyl-1,3,4-oxadiazol-2-yl)(4-(7-(difluoromethyl)pyrazolo[1,5-a]pyridin-2-yl)-6,7-dihydro-1H-imidazo[4,5-c]pyridin-5(4H)-yl)methanone], the half-maximal activity concentration (AC50) lay in the range of 500 to 1000 nM.

One may read the AC50 as the concentration at which the activity in the assay is half-maximal.
